pIC50: −log10 of the molar value.
Assays:
[1] = Aqueous solubility of the compound in PBS buffer at pH 2 measured after 24 hrs by HPLC-UV analysis; type: physicochemical
[2] = Aqueous solubility of the compound in PBS buffer at pH 7 measured after 24 hrs by HPLC-UV analysis; type: physicochemical
[3] = Aqueous solubility of the compound in PBS buffer at pH 7.4 measured after 24 hrs by HPLC-UV analysis; type: physicochemical
[4] = molecular target: T1, Cytochrome P450 1A2 (Homo sapiens, UniProt P05177); assay: Inhibition of CYP1A2 in human liver microsomes using phenacetin as substrate incubated for 15 to 45 mins in presence of NADPH; type: ADME
T1 sequence (P05177 whole entry): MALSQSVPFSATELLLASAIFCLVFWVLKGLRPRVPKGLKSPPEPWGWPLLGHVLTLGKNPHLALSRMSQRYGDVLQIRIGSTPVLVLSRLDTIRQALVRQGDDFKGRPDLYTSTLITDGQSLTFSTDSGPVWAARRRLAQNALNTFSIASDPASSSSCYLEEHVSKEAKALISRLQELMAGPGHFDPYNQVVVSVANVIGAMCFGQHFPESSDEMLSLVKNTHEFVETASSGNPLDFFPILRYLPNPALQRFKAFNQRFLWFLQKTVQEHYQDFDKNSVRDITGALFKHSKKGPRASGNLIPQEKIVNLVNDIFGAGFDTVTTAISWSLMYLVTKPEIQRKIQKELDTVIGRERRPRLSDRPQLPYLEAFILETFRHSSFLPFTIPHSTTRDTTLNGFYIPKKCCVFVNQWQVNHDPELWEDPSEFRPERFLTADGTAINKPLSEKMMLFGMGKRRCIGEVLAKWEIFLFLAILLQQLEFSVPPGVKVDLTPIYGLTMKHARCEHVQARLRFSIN

[5] = molecular target: Cytochrome P450 2C9 (Homo sapiens, UniProt P11712); assay: Inhibition of CYP2C9 in human liver microsomes using tolbutamide as substrate incubated for 15 to 45 mins in presence of NADPH
Cytochrome P450 2C9, sequence (P11712 whole entry): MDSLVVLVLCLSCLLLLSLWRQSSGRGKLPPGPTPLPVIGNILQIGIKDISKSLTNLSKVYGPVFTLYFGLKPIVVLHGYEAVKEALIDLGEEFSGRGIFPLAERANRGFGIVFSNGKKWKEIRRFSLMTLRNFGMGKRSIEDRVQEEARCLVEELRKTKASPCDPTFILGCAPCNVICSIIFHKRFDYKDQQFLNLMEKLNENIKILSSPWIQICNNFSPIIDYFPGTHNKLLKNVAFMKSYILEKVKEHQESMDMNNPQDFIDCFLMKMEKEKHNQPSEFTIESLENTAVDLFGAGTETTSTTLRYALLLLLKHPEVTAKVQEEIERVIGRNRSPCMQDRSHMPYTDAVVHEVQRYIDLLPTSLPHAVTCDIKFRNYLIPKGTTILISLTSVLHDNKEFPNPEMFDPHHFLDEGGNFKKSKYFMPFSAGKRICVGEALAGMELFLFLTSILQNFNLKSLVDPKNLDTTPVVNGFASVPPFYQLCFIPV

[6] = molecular target: Cytochrome P450 2C19 (Homo sapiens, UniProt P33261); assay: Inhibition of CYP2C19 in human liver microsomes using S-mephenytoin as substrate incubated for 15 to 45 mins in presence of NADPH; type: ADME
Cytochrome P450 2C19, sequence (P33261 whole entry): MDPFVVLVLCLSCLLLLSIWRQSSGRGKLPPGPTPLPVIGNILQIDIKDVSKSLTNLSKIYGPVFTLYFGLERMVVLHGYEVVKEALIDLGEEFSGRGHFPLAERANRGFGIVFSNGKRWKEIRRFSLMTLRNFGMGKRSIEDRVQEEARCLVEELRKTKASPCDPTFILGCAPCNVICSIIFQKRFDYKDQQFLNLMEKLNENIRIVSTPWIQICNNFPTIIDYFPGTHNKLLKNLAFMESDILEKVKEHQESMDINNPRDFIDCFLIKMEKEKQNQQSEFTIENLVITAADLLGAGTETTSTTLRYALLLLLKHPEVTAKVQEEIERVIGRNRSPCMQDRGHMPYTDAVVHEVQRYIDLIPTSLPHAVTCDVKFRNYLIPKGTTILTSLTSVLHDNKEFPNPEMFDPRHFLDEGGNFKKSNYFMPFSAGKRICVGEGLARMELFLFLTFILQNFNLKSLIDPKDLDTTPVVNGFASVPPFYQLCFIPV

[7] = molecular target: Cytochrome P450 2D6 (Homo sapiens, UniProt P10635); assay: Inhibition of CYP2D6 in human liver microsomes using dextromethorphan as substrate incubated for 15 to 45 mins in presence of NADPH; type: ADME
Cytochrome P450 2D6, sequence (P10635 whole entry): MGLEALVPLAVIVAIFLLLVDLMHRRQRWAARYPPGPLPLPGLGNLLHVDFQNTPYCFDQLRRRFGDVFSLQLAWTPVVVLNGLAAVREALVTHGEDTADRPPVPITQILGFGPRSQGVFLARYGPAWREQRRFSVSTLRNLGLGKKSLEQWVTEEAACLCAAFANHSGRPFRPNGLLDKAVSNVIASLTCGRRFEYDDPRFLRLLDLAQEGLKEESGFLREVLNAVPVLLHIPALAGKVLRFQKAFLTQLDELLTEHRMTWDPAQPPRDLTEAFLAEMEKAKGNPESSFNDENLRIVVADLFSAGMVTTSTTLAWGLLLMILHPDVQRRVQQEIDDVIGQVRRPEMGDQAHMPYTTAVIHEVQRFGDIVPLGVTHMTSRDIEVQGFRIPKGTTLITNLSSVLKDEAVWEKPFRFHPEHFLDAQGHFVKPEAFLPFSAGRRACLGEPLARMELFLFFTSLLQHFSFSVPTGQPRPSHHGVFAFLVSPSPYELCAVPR

[8] = Inhibition of CYP3A4T in human liver microsomes using testosterone as substrate incubated for 15 to 45 mins in presence of NADPH; type: ADME
[9] = Inhibition of CYP3A4M in human liver microsomes using midazolam as substrate incubated for 15 to 45 mins in presence of NADPH; type: ADME
[10] = AUC (0 to last) in Sprague-Dawley rat at 5 mg/kg, po administered via gavage measured up to 24 hrs by LCMS analysis; type: ADME, organism-based; design: route oral, dose 5 mg/kg, time <=24; conditions: in vivo
[11] = AUC (0 to last) in Sprague-Dawley rat at 1 mg/kg, iv measured up to 24 hrs by LCMS analysis; type: ADME, organism-based; design: route intravenous, dose 1 mg/kg, time <=24; conditions: in vivo
[12] = AUCinfinity in Sprague-Dawley rat at 5 mg/kg, po administered via gavage measured up to 24 hrs by LCMS analysis; type: ADME, organism-based; design: route oral, dose 5 mg/kg, time <=24; conditions: in vivo
[13] = AUCinfinity in Sprague-Dawley rat at 1 mg/kg, iv measured up to 24 hrs by LCMS analysis; type: ADME, organism-based; design: route intravenous, dose 1 mg/kg, time <=24; conditions: in vivo
[14] = MRTinfinity in Sprague-Dawley rat at 5 mg/kg, po administered via gavage measured up to 24 hrs by LCMS analysis; type: ADME, organism-based; conditions: in vivo
[15] = MRTinfinity in Sprague-Dawley rat at 1 mg/kg, iv measured up to 24 hrs by LCMS analysis; type: ADME, organism-based; conditions: in vivo
[16] = Half life in Sprague-Dawley rat at 5 mg/kg, po administered via gavage measured up to 24 hrs by LCMS analysis; type: ADME, organism-based; conditions: in vivo
[17] = Half life in Sprague-Dawley rat at 1 mg/kg, iv measured up to 24 hrs by LCMS analysis; type: ADME, organism-based; conditions: in vivo
[18] = Tmax in Sprague-Dawley rat at 5 mg/kg, po administered via gavage measured up to 24 hrs by LCMS analysis; type: ADME, organism-based; conditions: in vivo
[19] = Cmax in Sprague-Dawley rat at 5 mg/kg, po administered via gavage measured up to 24 hrs by LCMS analysis; type: ADME, organism-based; design: route oral, dose 5 mg/kg, time <=24; conditions: in vivo
[20] = Oral bioavailability in Sprague-Dawley rat at 5 mg/kg administered via gavage measured up to 24 hrs by LCMS analysis; type: ADME, organism-based; conditions: in vivo
[21] = Acute toxicity in fasted male mouse assessed as death at 2 g/Kg, IG administered as single dose measured every day for 14 days; conditions: in vivo, po, 2000 mg/kg, 336 h, time 14 day
[22] = Acute toxicity in fasted male mouse assessed as abnormal behavior at 2 g/Kg, IG administered as single dose measured every day for 14 days; conditions: in vivo, po, 2000 mg/kg, 336 h, time 14 day
[23] = Acute toxicity in fasted male mouse assessed as increase in body weight at 2 g/Kg, IG administered as single dose measured every day for 14 days; conditions: in vivo, po, 2000 mg/kg, 336 h, time 14 day
[24] = Acute toxicity in fasted male mouse assessed as pathological changes in brain at 2 g/Kg, IG administered as single dose measured after 14 days by HE staining based assay; type: tissue-based; conditions: in vivo, po, 2000 mg/kg, 336 h, time 14 day
[25] = Acute toxicity in fasted male mouse assessed as pathological changes in heart at 2 g/Kg, IG administered as single dose measured after 14 days by HE staining based assay; type: tissue-based; conditions: in vivo, po, 2000 mg/kg, 336 h, time 14 day
[26] = Acute toxicity in fasted male mouse assessed as pathological changes in liver at 2 g/Kg, IG administered as single dose measured after 14 days by HE staining based assay; type: tissue-based; conditions: in vivo, po, 2000 mg/kg, 336 h, time 14 day
[27] = Acute toxicity in fasted male mouse assessed as pathological changes in spleen at 2 g/Kg, IG administered as single dose measured after 14 days by HE staining based assay; type: tissue-based; conditions: in vivo, po, 2000 mg/kg, 336 h, time 14 day
[28] = Acute toxicity in fasted male mouse assessed as pathological changes in lung at 2 g/Kg, IG administered as single dose measured after 14 days by HE staining based assay; type: tissue-based; conditions: in vivo, po, 2000 mg/kg, 336 h, time 14 day
[29] = Acute toxicity in fasted male mouse assessed as pathological changes in kidney at 2 g/Kg, IG administered as single dose measured after 14 days by HE staining based assay; type: tissue-based; conditions: in vivo, po, 2000 mg/kg, 336 h, time 14 day
[30] = Acute toxicity in fasted female mouse assessed as death at 2 g/Kg, IG administered as single dose measured every day for 14 days; conditions: in vivo, po, 2000 mg/kg, 336 h, time 14 day
[31] = Acute toxicity in fasted female mouse assessed as abnormal behavior at 2 g/Kg, IG administered as single dose measured every day for 14 days; conditions: in vivo, po, 2000 mg/kg, 336 h, time 14 day
[32] = Acute toxicity in fasted female mouse assessed as increase in body weight at 2 g/Kg, IG administered as single dose measured every day for 14 days; conditions: in vivo, po, 2000 mg/kg, 336 h, time 14 day
[33] = Acute toxicity in fasted female mouse assessed as pathological changes in brain at 2 g/Kg, IG administered as single dose measured after 14 days by HE staining based assay; type: tissue-based; conditions: in vivo, po, 2000 mg/kg, 336 h, time 14 day
[34] = Acute toxicity in fasted female mouse assessed as pathological changes in heart at 2 g/Kg, IG administered as single dose measured after 14 days by HE staining based assay; type: tissue-based; conditions: in vivo, po, 2000 mg/kg, 336 h, time 14 day
[35] = Acute toxicity in fasted female mouse assessed as pathological changes in liver at 2 g/Kg, IG administered as single dose measured after 14 days by HE staining based assay; type: tissue-based; conditions: in vivo, po, 2000 mg/kg, 336 h, time 14 day
[36] = Acute toxicity in fasted female mouse assessed as pathological changes in spleen at 2 g/Kg, IG administered as single dose measured after 14 days by HE staining based assay; type: tissue-based; conditions: in vivo, po, 2000 mg/kg, 336 h, time 14 day
[37] = Acute toxicity in fasted female mouse assessed as pathological changes in lung at 2 g/Kg, IG administered as single dose measured after 14 days by HE staining based assay; type: tissue-based; conditions: in vivo, po, 2000 mg/kg, 336 h, time 14 day
[38] = Acute toxicity in fasted female mouse assessed as pathological changes in kidney at 2 g/Kg, IG administered as single dose measured after 14 days by HE staining based assay; type: tissue-based; conditions: in vivo, po, 2000 mg/kg, 336 h, time 14 day
[39] = Metabolic stability in mouse liver microsomes assessed as intrinsic clearance at 1 uM presence of NADPH measured up to 60 mins by LC-MS/MS analysis; type: ADME, Microsome; conditions: read-out: CLH
[40] = Metabolic stability in rat liver microsomes assessed as intrinsic clearance at 1 uM presence of NADPH measured up to 60 mins by LC-MS/MS analysis; type: ADME, Microsome; conditions: read-out: CLH
[41] = Metabolic stability in human liver microsomes assessed as intrinsic clearance at 1 uM presence of NADPH measured up to 60 mins by LC-MS/MS analysis; type: ADME, Microsome; conditions: read-out: CLH
[42] = Metabolic stability in mouse liver microsomes assessed as half life at 1 uM presence of NADPH measured up to 60 mins by LC-MS/MS analysis; type: ADME, Microsome
[43] = Metabolic stability in human liver microsomes assessed as half life at 1 uM presence of NADPH measured up to 60 mins by LC-MS/MS analysis; type: ADME, Microsome
[44] = Metabolic stability in rat liver microsomes assessed as half life at 1 uM presence of NADPH measured up to 60 mins by LC-MS/MS analysis; type: ADME, Microsome
[45] = Half life in Sprague-Dawley rat at 5 mg/kg, IG measured up to 24 hrs by LCMS analysis; type: ADME, organism-based; conditions: in vivo, po

Compound | pIC50 [4] | pIC50 [5] | pIC50 [6] | pIC50 [7] | pIC50 [8] | pIC50 [9] | half-life [17] [min] | Tmax [18] [min] | Cmax [19] [ng/mL] | bioavailability [20] [%] | Activity [21] | Activity [22] | Activity [23] | Activity [24] | Activity [25] | Activity [26] | Activity [27] | Activity [28] | Activity [29] | Activity [30] | other results
Cc1cc(-c2ccncc2)cc(C)c1Nc1ccnc(Nc2ccc(C#N)cc2)n1.Cl | < 4.52 | 4.77 | 5.17 | < 4.52 | 4.70 | 4.68 | 21.6 | 60 | 365 | 59.4 | Non-Toxic | Non-Toxic | Toxic | Non-Toxic | Non-Toxic | Non-Toxic | Non-Toxic | Non-Toxic | Non-Toxic | Non-Toxic | solubility at 24 h [1]: 584 µg/mL; solubility at 24 h [2]: 9.1 µg/mL; solubility at 24 h [3]: 9 µg/mL; AUC(0-t) at 24 h [10]: 835 ng·h/mL; AUC(0-t) at 24 h [11]: 285 ng·h/mL; AUC(0-inf) [12]: 861 ng·h/mL; AUC(0-inf) [13]: 290 ng·h/mL; MRT inf [14]: 126 min; MRT inf [15]: 28.8 min; half-life [16]: 132 min; Activity [31]: Non-Toxic; Activity [32]: Toxic; Activity [33]: Non-Toxic; Activity [34]: Non-Toxic; Activity [35]: Non-Toxic; Activity [36]: Non-Toxic; Activity [37]: Non-Toxic; Activity [38]: Non-Toxic
Br.Cc1cnc(Nc2ccc(C#N)cc2)nc1Nc1c(F)cc(-c2ccncc2)cc1F | 5.39 | 5.35 | 5.66 | 5.12 | 4.72 | 4.54 | 48.6 | 15 | 2.14 | 0.9 | Non-Toxic | Non-Toxic | Toxic | Non-Toxic | Non-Toxic | Non-Toxic | Non-Toxic | Non-Toxic | Non-Toxic | Non-Toxic | microsomal CLint at 1 µM [39]: 24.9 µL/min/mg; microsomal CLint at 1 µM [40]: 31.8 µL/min/mg; microsomal CLint at 1 µM [41]: 14.6 µL/min/mg; half-life at 1 µM [42]: 56 min; Activity [31]: Non-Toxic; Activity [32]: Toxic; Activity [33]: Non-Toxic; Activity [34]: Non-Toxic; Activity [35]: Non-Toxic; Activity [36]: Non-Toxic; Activity [37]: Non-Toxic; Activity [38]: Non-Toxic; half-life at 1 µM [43]: 95 min; half-life at 1 µM [44]: 44 min
N#Cc1ccc(Nc2nccc(Nc3c(F)cc(-c4ccncc4)cc3F)n2)cc1 | – | – | – | – | – | – | – | – | – | – | – | – | – | – | – | – | – | – | – | – | half-life [45]: 50.4 min
